According to article PMC6014988, “Precision therapeutic targeting of human cancer cell motility” (Nature Communications, 2018):

Columns and labels:
MMPs: 1,2,3, and 7-16 = experiment: Qiagen extracellular matrix/adhesion and metastasis/invasion expression arrays; format: cell-based, human; conditions: PC3-M cells, three days
Description: Response to Reviewers' comments:
We wish to thank the reviewers for their consideration of our manuscript. Their review and critiques have served to improve this manuscript. Below is a point-by-point response to reviewer critiques.
Changes in the manuscript and associated documents are underlined.
General comments: Much of the data is compelling and would be of interest to readers of Nature Communications, but some experimental procedures require a more thorough description and some of the data are too cursory to support the authors’ mechanistic conclusions...
Response. Thank you for your comprehensive and in formed review, we are encouraged that you felt that our data would be compelling to the readers of Nature Communications. In our revised manuscript as well as below, you will find that we have provided the requested clarifications, expanded descriptions and additional experiments requested.
1. Does the compound (herein abbreviated as ‘46’) have any impact on MMPs or other matrix-destroying activities? […] We did in fact suspect that this may be contributing to KBU2046’s anti-invasion efficacy, and as such we evaluated an entire panel of MMPs as part of two separate expression arrays. […]
2. […] Description of this experiment in both the figure legend and in Supplemental Methods is too cursory for the reader to understand how the treatment plan was selected. […]

[1] = Single intravenous dose organ function study; format: in vivo; conditions: CD1 mice, single iv 15, 75 or 125 mg/kg, day 8 and 14
Description: Supplementary Figure 7. KBU2046 treatment is not associated with systemic off-target effects. For histologic examination of tissue, cohorts of N=5 male 6-8 week old Balb/c athymic […]
KBU2046 as described in manuscript Figure 2a. After 35 days of treatment, the following organs were harvested at necropsy, and stained with H&E (alternative staining methods as indicated): heart, lungs, esophagus, stomach, colon, small intestine, liver (Trichrome staining), kidneys (Trichrome staining), adrenals, bladder, prostate, spleen, pancreas, brain, testes, and bone marrow and peripheral blood (Giemsa staining). Organs were examined for damage using a semi-quantitative histological scoring system, as described 4. […]
except in the livers of both control and treatment mice. Changes in the liver observed in control mice were not increased by KBU2046 treatment. […]
gm/mouse, this translated to 5-7 week old females and 4.5-5.5 week old males. […] On day 8 and 14, all critical organs were weighed, and the following parameters measured in blood: cholesterol, triglycerides, alanine aminotransferase (ALT), aspartate aminotransferase (AST), total bilirubin, glucose, phosphorus, total protein, calcium, blood urea nitrogen (BUN), creatinine, albumin, Na, K, Cl, white blood cells (with differential), red blood cells, hemoglobin, […]

1542NPTX = experiment: Three-day MTT cell growth inhibition assay, 1542NPTX; format: cell-based, human; conditions: Homo sapiens, 72 h, 3 days
[2] = as above; format: cell-based, human; conditions: human, 1542NPTX cells
[3] = test system: 284 kinases and 20 phosphatases; experiment: KinaseProfiler and PhosphataseProfiler assay platforms; format: biochemical
Description: There were two initial false positives (for a false positive rate of 0.4%), that were subsequently found to be negative in a dedicated follow up analysis. Specific and important negative findings include MKK4, p38 MAPK (α, β, γ and δ […]
by competing for phospho-acceptor binding.
Kinase assay system #2. The Kinex™ kinase assay system (Kinexus Proteomics Company).
This platform uses recombinant human protein kinases expressed in an insect expression system, thus allowing an avenue for post-translational modification. Also, this platform measures inhibition of ATP binding. This platform putatively measured 200 different kinases, and we […]
tested KBU2046 at 1 and 10 μM. […] There were two […]
important technical issues. First, at 10 μM KBU2046 interfered with the colorimetric-based […]
However, while considering the above factors, this screen was informative for a number of […]
function by competing for ATP binding in the active site.
Kinase assay system #3. KinaseProfiler™ and PhosphataseProfiler™ assay platforms (Millipore). This platform is radiometric-based (considered gold standard). It measures competition with respect to ATP for kinases and substrate protein for phosphatases. Most proteins were expressed via an insect-based system, and it evaluates a panel of 284 kinases and 20 phosphatases. There were two initial false positives, for a false positive rate of 0.7%, but both […]

In the case of `O=C1c2ccccc2OCC1c1ccc(F)cc1` (racemic) [KBU2046, (±)-3(4-fluorophenyl)chroman-4-one], the “expression of MMPs and other array members” value (MMPs: 1,2,3, and 7-16) is reported as “no significant differences”, the “organ weights, clinical chemistry and blood parameters” value [1] is reported as “No abnormal alterations” and the IC20 (1542NPTX) is reported as > 50 µM. The IC50 (1542NPTX) was > 50 µM, the viability at 3 days, 50 µM [2] was 107% and the “inhibition of phosphatase activity” value ([3]; 20 phosphatases) was “No evidence supports inhibition”. For the same compound, the “inhibition of kinase activity” value ([3]; radiometric, 284 kinases) was “no evidence that KBU2046 inhibits”.
